Results from US11241501B2, “Anticancer prodrug for overcoming drug resistance” (Korea University Research and Business Foundation, priority 2018, dated 2022).

How the values were obtained:
HepG2 cells [1] = experiment: Immunoblot assay of cleaved caspase-3 and PARP-1; type: cell-based, human
Method: (§1) Immunoblot analyses were performed using antibodies specific for phosphorylated serine 293 PDH-EI (ab92696), p21^Waf1 (sc-397), cleaved PARP (5625), cleaved caspase-3 (9664), COX-IV (4850), and Cytochrome c (4280). They were purchased from Abcam (Cambridge, UK), Santa Cruz Biotechnology (Texas, USA) or Cell Signaling Technology (Massachusetts, USA). Anti-tubulin antibodies were obtained from Sigma-Aldrich (St. Louis, USA). Briefly, cells were washed twice in ice-cold PBS and lysed in a radioimmunoprecipitation assay buffer containing 50 mM Tris/HCl (pH 7.5), 150 mM NaCl, 0.1% sodium dodecyl sulfate (SDS), 1% Triton X-100, 1% sodium deoxycholate, and protease inhibitor mixture. After sonification, the lysate was centrifuged, and the supernatant was recovered and loaded onto a 12% SDS-polyacrylamide gel for electrophoresis.

[2] = tested on: MCF7/Dox xenograft tumors; experiment: Independent comparative xenograft study of C1-C4; type: in vivo, mice; conditions: n=5 per group, FIG. 23C
From the text: Tumors are shown (right). […] C1 injection led to a 58% reduction in tumor growth, which was statistically greater than the reductions seen in the case of C2 (16%), C3 (9%), C4 (6%) and DMSO (0%) tested under otherwise identical conditions.

MCF7/Dox cells [3] = experiment: Cytochrome c release from mitochondria, immunoblot; type: cell-based, human
Method: (§2) Fluorescence intensities were measured with SpectraMAX 13. Data represent means±SD. **p<0.01. […] Data represent means±SD. **[…]. […] Data represent the mean±SD (n=3 experimental replicates). *p<0.05, **p<0.01. […] MCF7/Dox cells were treated with C1 or C3 as indicated, and the cytosolic (C) and mitochondrial (M) fractions were subjected to immunoblot assay. COX-IV and tubulin were used as markers for the mitochondria and cytosol fractions, respectively.
as §1, with “electrophoresis. […]” for “electrophoresis.”

[4] = Stability on incubation in PBS; type: physicochemical; conditions: PBS pH 7.4, 37° C., 24 hr
Method: To gain further insight into the preliminary stability and activation of conjugates containing DCA, Dox, and a TPP cation targeting entity, both the target conjugate C1 and the control system C3 (an analog of C1 lacking the chloromethyl groups present in DCA; cf. FIG. 1) were prepared. These two conjugates were obtained in excellent yield, as shown in Scheme S1. […] This release was accompanied by a strong emission band at 560 nm corresponding to free Dox (FIG. 2A and FIG. 2B). Further support for the release of free Dox under these conditions came from time-dependent fluorescence experiments, HPLC, and liquid chromatography-mass spectrometry (FIG. 2B and FIG. 2C, and FIG. 7). […] To test the reaction of C1 with various other bioanalytes, the fluorescence response in the presence of various amino acids, enzymes, and biomolecules was recorded.

MCF7/Dox cells [5] = experiment: Cell death assay, Annexin V flow cytometry; type: cell-based, human; conditions: 5 μM
Method: MCF-7/Dox cells (8×10^5 cells) were seeded in 60 mm dishes and cultured for 24 h. The cells were treated with 5 μM compound C1, C3, DCA and/or doxorubicin for 48 h. After washing and centrifugation, the harvested cells were stained with the Annexin V/PI Apoptosis Detection kit (BD Biosciences, USA) for 1 min at room temperature. The apoptotic cells were then quantified on a FACSCalibur™ flow cytometer and analyzed using the CELLQUEST™ software (BD Biosciences).

[6] = Cell fractionation assay, mitochondria-to-nucleus trafficking; type: cell-based; conditions: after treatment with C1
Method: as §2
Separation of cytosolic and mitochondrial fractions was performed using the Mitochondria Isolation Kit (Thermo Scientific, USA). Briefly, the cells were washed with cold PBS and lysed by 5-cycle freeze-thawing in Mitochondria Isolation Reagent A buffer, containing 10 mM phenylmethylsulfonyl fluoride (PMSF). After incubation on ice for 10 min and the addition of Mitochondria Isolation Reagent B buffer, the lysates were centrifuged at 700×g for 10 min following inverting by treating with Mitochondria Isolation Reagent C buffer. The supernatant was transferred to a new tube, centrifuged at 12 000×g for 15 min at 4° C., and collected as the cytosolic fraction. After adding […] of Mitochondria Isolation Reagent C, the pellet was centrifuged at 12 000×g for 5 min and collected as the mitochondrial fraction.

MCF7/Dox cells [7] = experiment: Colony formation assay; type: cell-based, human; conditions: 10 days
Method: as §2
(§3) Cells were seeded in 24 well plates at 2×10^5 cells per well and were allowed to adhere for at least 24 h, growth medium was replaced with medium containing C1 or its analogues at the indicated concentrations and times, and cell viability was assessed via the WST-1 assay (Roche Diagnostics, Laval, QC, Canada). For the colony formation assay, cells were seeded in 6-well plates. After 24 h, cells were maintained in the presence of each probe or vehicle dimethyl sulfoxide (DMSO) for 10 days. Colonies were fixed with methanol for 10 min and stained with 0.05% crystal violet in 20% ethanol.

MCF7 cells = experiment: Colony formation assay; type: cell-based, human; conditions: 10 days
Method: as §3

HepG2 cells [8] = experiment: WST cell viability assay; type: cell-based, human
Method: (§4) HepG2 cells treated with each compound (5 μM, 24 hr) were co-stained with the mitochondrial marker MitoTracker (green). Boxed regions show co-localization of the test compounds and probe within the mitochondria. […] Experiments were carried out in triplicate and the data shown represent means±SD. **p<0.01. […] HepG2 cells were incubated with BNPP (100 μM) for 2 hr prior to C1 treatment. **p<0.01. […] Cleaved caspase-3 and PARP-1 levels were examined to assess apoptosis induction. C, cleaved.
as §3

WST cell viability assay = type: cell-based, human; conditions: human; HepG2 cells, WST assay; read-out: IC50 (cytotoxicity)
Method: as §4, §3

MCF7 and MCF7/Dox cells = experiment: Intracellular accumulation, fluorescence assay; type: cell-based, human; conditions: up to 12 hr after treatment
Method: as §2
Mito-tracker (green) was utilized to show the mitochondria;
To analyze the cellular fluorescence levels upon compound treatment, cells were seeded in plates 1 day before treatment with the compounds. Cells were then treated with each compound for the indicated dose or time course. After the experiment, cells were washed with ice-cold PBS, trypsinized, and centrifuged. The cell pellet was re-suspended in 300 μL of PBS and then analyzed using a multiplate reader (SpectraMAX I3x). The results were normalized according to the number of cells.

**Q.** What does the source list for `COc1cccc2c1C(=O)c1c(O)c3c(c(O)c1C2=O)C[C@@](O)(C(=O)CO)C[C@@H]3OC1C[C@H](NC(=O)OC(Cc2cn(CCCCCC[P+](c3ccccc3)(c3ccccc3)c3ccccc3)nn2)c2ccc(NC(=O)C(Cl)Cl)cc2)[C@H](O)[C@H](C)O1.[Br-]` (stereo partly drawn) [C1]?
**A.** apoptosis-inducing activity (cleaved caspase-3 and PARP-1) (HepG2 cells [1]): greater apoptosis-inducing activity than C2; reduction in tumor growth [2]: 58%; cytochrome c release, cleavage of caspase-3 and PARP-1, decrease in cell viability (MCF7/Dox cells [3]): induces cytochrome c release from the mitochondria; decomposition upon incubation in PBS [4]: no decomposition was observed; apoptosis by Annexin V flow cytometry (MCF7/Dox cells [5]): promotes both early and late apoptosis; time for released Dox to translocate to the nucleus [6]: approximately 2 hr; colony-forming ability (MCF7/Dox cells [7]): strong inhibitory effect; colony-forming ability (MCF7 cells): strong inhibitory effect; effect of BNPP pretreatment on C1-driven decrease in cell viability (HepG2 cells [8]; HepG2, BNPP 100 μM 2 hr before treatment): strongly attenuated; cell death in cell-survival assays (HepG2 cells [8]; compared with C3-C6): greater cell death in a dose-dependent manner; IC50 (WST cell viability assay): 22.1 ± 0.325 µM; intracellular accumulation in MCF7/Dox versus MCF7 (MCF7 and MCF7/Dox cells): comparable level in both MCF7 and MCF7/Dox cells
